The values that follow come from patent publication US7531671B2, “Dihydroisoindolones as allosteric modulators of glucokinase” (Janssen Pharmaceutica N.V., priority 2005, dated 2009).

This experiment deals with T1, human pancreas Glucokinase (GK) (Homo sapiens, UniProt P35557).
T1 construct: (His)6; made in house; host or cells: Escherichia coli
T1 sequence (P35557 1-465): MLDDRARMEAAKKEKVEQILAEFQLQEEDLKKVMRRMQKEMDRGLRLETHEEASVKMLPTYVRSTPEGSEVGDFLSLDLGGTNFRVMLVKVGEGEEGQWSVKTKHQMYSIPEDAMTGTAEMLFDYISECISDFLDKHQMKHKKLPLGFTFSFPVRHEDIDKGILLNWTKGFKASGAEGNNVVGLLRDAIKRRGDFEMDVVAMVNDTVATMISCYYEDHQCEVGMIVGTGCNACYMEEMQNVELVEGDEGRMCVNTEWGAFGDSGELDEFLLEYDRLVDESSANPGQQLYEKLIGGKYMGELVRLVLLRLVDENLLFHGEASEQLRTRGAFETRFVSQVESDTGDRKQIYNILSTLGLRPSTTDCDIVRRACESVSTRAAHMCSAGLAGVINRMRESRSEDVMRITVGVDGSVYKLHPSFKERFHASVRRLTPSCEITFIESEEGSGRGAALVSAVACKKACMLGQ
In words: Glucokinase enzyme assay, Pancreas GK data. As to conditions: for activation at 50 µM: compound 50 μM, percentage increase in GK activity above vehicle control, 12 mM glucose; for EC50: concentration producing 50% activation above vehicle control; for EC100%: concentration producing 100% activation above vehicle control. It counts as biochemical. An excerpt:
An enzymatic Glucokinase (GK) assay using purified recombinant human liver/pancreas enzyme was used to evaluate the effects of potential small molecule modulators.
In this assay, GK catalyzes glucose phosphorylation in the presence of ATP. The product of this reaction, glucose-6-phosphate, was then oxidized by an excess of glucose-6-phosphate dehydrogenase to produce gluconate-6-phosphate with concomitant reduction of nicotinamide adenine dinucleotide (NAD). […] Human GK (Liver/Pancreas) was expressed in Escherichia coli as a (His) 6-tagged fusion protein and was purified by metal chelate affinity chromatography. The assay was performed in a final incubation volume of 80 μl in a 96-well clear low UV absorption plates. The incubation mixture consisted of 25 mM HEPES, 2 mM MgSO4, 1 mM dithiothreotol (DTT), 1 mg/ml bovine serum albumin (BSA), 1 mM ATP, 1 mM NAD, and 12 mM glucose, 10 units per ml glucose-6-phosphate dehydrogenase, and +/−300 ng per ml GK. For determination of the affinity (Km) and Vmax, different concentrations of glucose ranging from 0.5 mM to 40 mM were used in the assay; see Grimsby, J., Sarabu, R.; Grippo, J. F.; et. al. Science 2003, 301, 370-373. Production of reduced NAD (Nicotinamide Adenine Dinucleotide) was measured as changes in absorption at 340 nm in 96-well plate reader (Envision model # 2101 Multilabel Plate reader). % Activation @ 50 μM was calculated as the percentage increase in GK activity above the vehicle control with the effective concentration of the compound being 50 μM. EC50% (μM) was calculated as the effective concentration of the compound that produces 50% activation above the vehicle control, and EC100% (μM) was calculated as the effective concentration of the compound that produces 100% activation above the vehicle control.

“And” between values parts separate entries of the source, which are not always exact repeats. Identical values can stand only once.

On to `O=C(CSC1c2ccccc2C(=O)N1Cc1ccc2c(c1)OCCO2)Nc1ccccn1` (stereo not shown) [Compound 38, 2-[2-(2,3-Dihydro-benzo[1,4]dioxin-6-ylmethyl)-3-oxo-2,3-dihydro-1H-isoindol-1-ylsulfanyl]-N-pyridin-2-yl-acetamide], for which the activation at 50 µM was 201%, the EC50 was found to be 1000 nM and the “EC100%” value was 3.8 µM.

With `COc1cc(CN2C(=O)c3ccccc3C2SCC(=O)Nc2ccccn2)cc(OC)c1OC` (stereo not shown) [Compound 39, 2-[3-Oxo-2-(3,4,5-trimethoxy-benzyl)-2,3-dihydro-1H-isoindol-1-ylsulfanyl]-N-pyridin-2-yl-acetamide], the activation at 50 µM was found to be 193%, the EC50 worked out at 1400 nM and the “EC100%” value was 5.3 µM.

As to `O=C(CSC1c2ccccc2C(=O)N1Cc1ccc(N2CCCC2=O)cc1)Nc1ccccn1` (stereo not shown) [Compound 40, 2-{3-Oxo-2-[4-(2-oxo-pyrrolidin-1-yl)-benzyl]-2,3-dihydro-1H-isoindol-1-ylsulfanyl}-N-pyridin-2-yl-acetamide], the activation at 50 µM was found to be 109%, the EC50 came to 2100 nM and the “EC100%” value worked out at 16.1 µM.

As for `O=C(CSC1c2ccccc2C(=O)N1Cc1ccc2c(c1)OCO2)Nc1ccccn1` (stereo not shown) [Compound 41, 2-(2-Benzo[1,3]dioxol-5-ylmethyl-3-oxo-2,3-dihydro-1H-isoindol-1-ylsulfanyl)-N-pyridin-2-yl-acetamide], the activation at 50 µM is 152%, the EC50 is 2800 nM and the “EC100%” value turned out to be 10 µM.

Take `COc1ccc(CN2C(=O)c3ccccc3C2SCC(=O)Nc2ccccn2)cc1OC` (stereo not shown) [Compound 42, 2-[2-(3,4-Dimethoxybenzyl)-3-oxo-2,3-dihydro-1H-isoindol-1-ylsulfanyl]-N-pyridin-2-yl-acetamide]: the EC50 was 540 nM and 780 nM; the “EC100%” value was 1.6 µM and 2.4 µM.

Consider `O=C(CSC1c2ccccc2C(=O)N1Cc1cccc2ccccc12)Nc1ccccn1` (stereo not shown) [Compound 43, 2-(2-Naphthalen-1-ylmethyl-3-oxo-2,3-dihydro-1H-isoindol-1-ylsulfanyl)-N-pyridin-2-yl-acetamide], for which the activation at 50 µM worked out at 112%, the EC50 was 4000 nM and the “EC100%” value is 7.1 µM.

Take `O=C(CSC1c2ccccc2C(=O)N1Cc1ccc2sccc2c1)Nc1ccccn1` (stereo not shown) [Compound 44, 2-(2-Benzo[b]thiophen-5-ylmethyl-3-oxo-2,3-dihydro-1H-isoindol-1-ylsulfanyl)-N-pyridin-2-yl-acetamide]: the activation at 50 µM was 116%, the EC50 amounted to 890 nM and the “EC100%” value is 5.9 µM.

On to `Cc1[nH]c2ccc(CN3C(=O)c4ccccc4C3SCC(=O)Nc3ccccn3)cc2c1C` (stereo not shown) [Compound 45, 2-[2-(2,3-Dimethyl-1H-indol-5-ylmethyl)-3-oxo-2,3-dihydro-1H-isoindol-1-ylsulfanyl]-N-pyridin-2-yl-acetamide], for which the activation at 50 µM is 132%, the EC50 was 380 nM and the “EC100%” value came out at 2 µM.

Turning to `O=C(CSC1c2ccccc2C(=O)N1Cc1ccc(-n2cccc2)cc1)Nc1ccccn1` (stereo not shown) [Compound 46, 2-[3-Oxo-2-(4-pyrrol-1-yl-benzyl)-2,3-dihydro-1H-isoindol-1-ylsulfanyl]-N-pyridin-2-yl-acetamide], the activation at 50 µM was found to be 106%, the EC50 came out at 800 nM and the “EC100%” value turned out to be 4.8 µM.

In the case of `O=C(CSC1c2ccccc2C(=O)N1Cc1ccc(-n2cccn2)cc1)Nc1ccccn1` (stereo not shown) [Compound 47, 2-[3-Oxo-2-(4-pyrazol-1-yl-benzyl)-2,3-dihydro-1H-isoindol-1-ylsulfanyl]-N-pyridin-2-yl-acetamide], the activation at 50 µM amounted to 106% and the EC50 was 800 nM.

Turning to `O=C(CSC1c2ccccc2C(=O)N1Cc1ccc(OC(F)(F)F)cc1)Nc1ccccn1` (stereo not shown) [Compound 48, 2-[3-Oxo-2-(4-trifluoromethoxybenzyl)-2,3-dihydro-1H-isoindol-1-ylsulfanyl]-N-pyridin-2-yl-acetamide], the activation at 50 µM worked out at 174%, the EC50 is 1600 nM and the “EC100%” value worked out at 6.9 µM.

With `COc1ccc(CN2C(=O)c3ccccc3C2SCC(=O)Nc2ccccn2)cc1` (stereo not shown) [Compound 49, 2-[2-(4-Methoxybenzyl)-3-oxo-2,3-dihydro-1H-isoindol-1-ylsulfanyl]-N-pyridin-2-yl-acetamide], the activation at 50 µM was determined as 250%, the EC50 was determined as 210 nM and the “EC100%” value amounted to 0.86 µM.

Consider `CN(C)c1ccc(CN2C(=O)c3cccc(F)c3C2SCC(=O)Nc2ccccn2)cc1` (stereo not shown) [Compound 51, 2-[2-(4-Dimethylaminobenzyl)-7-fluoro-3-oxo-2,3-dihydro-1H-isoindol-1-ylsulfanyl]-N-pyridin-2-yl-acetamide], for which the activation at 50 µM amounted to 161%, the EC50 was found to be 360 nM and the “EC100%” value stood at 1.7 µM.

As for `COc1ccc(CN2C(=O)c3cccc(F)c3C2SCC(=O)Nc2ccccn2)cc1OC` (stereo not shown) [Compound 52, 2-[2-(3,4-Dimethoxybenzyl)-7-fluoro-3-oxo-2,3-dihydro-1H-isoindol-1-ylsulfanyl]-N-pyridin-2-yl-acetamide], the “EC100%” value was 0.056 µM and 0.066 µM.

`CCCCN1C(=O)c2ccccc2C1OCC(=O)Nc1nccs1` (stereo not shown) [Compound 53, 2-(2-Butyl-3-oxo-2,3-dihydro-1H-isoindol-1-yloxy)-N-thiazol-2-yl-acetamide] returned an activation at 50 µM of 101% and an EC50 of 18300 nM.

As to `O=C(CSC1c2ccccc2C(=O)N1Cc1ccc(F)cc1)Nc1ccc(C(=O)O)cn1` (stereo not shown) [Compound 54, 6-{2-[2-(4-Fluorobenzyl)-3-oxo-2,3-dihydro-1H-isoindol-1-ylsulfanyl]-acetylamino}-nicotinic acid], the activation at 50 µM was 358%, the EC50 came to 1100 nM and the “EC100%” value was determined as 6.1 µM.

In the case of `COc1ccc(CN2C(=O)c3ccccc3C2SCC(=O)Nc2ccc(C(=O)O)cn2)cc1` (stereo not shown) [Compound 55, 6-{2-[2-(4-Methoxybenzyl)-3-oxo-2,3-dihydro-1H-isoindol-1-ylsulfanyl]-acetylamino}-nicotinic acid], the activation at 50 µM is 246%, the EC50 was 1350 nM and the “EC100%” value worked out at 3.4 µM.

For the compound `COc1ccc(CN2C(=O)c3ccccc3C2SCC(=O)Nc2ccc(C(=O)O)cn2)cc1OC` (stereo not shown) [Compound 56, 6-{2-[2-(3,4-Dimethoxybenzyl)-3-oxo-2,3-dihydro-1H-isoindol-1-ylsulfanyl]-acetylamino}-nicotinic acid], the activation at 50 µM amounted to 219%, the EC50 came out at 850 nM and the “EC100%” value amounted to 2.7 µM.

`COc1ccc(CN2C(=O)c3c(F)ccc(F)c3C2SCC(=O)Nc2ccc(C(=O)O)cn2)cc1OC` (stereo not shown) [Compound 57, 6-{2-[2-(3,4-Dimethoxybenzyl)-4,7-difluoro-3-oxo-2,3-dihydro-1H-isoindol-1-ylsulfanyl]-acetylamino}-nicotinic acid]: the activation at 50 µM is 258%, the EC50 amounted to 130 nM and the “EC100%” value was 0.4 µM.

In turn, `Cc1ccc2c(c1)C(OCC(=O)Nc1cnccn1)N(Cc1ccccc1)C2=O` (stereo not shown) [Compound 58, 2-(2-Benzyl-6-methyl-3-oxo-2,3-dihydro-1H-isoindol-1-yloxy)-N-pyrazin-2-yl-acetamide] returned an activation at 50 µM of 70% and an EC50 of 27000 nM.

With `COC(=O)c1ccc(NC(=O)COC2c3cc(C)ccc3C(=O)N2Cc2ccccc2)nc1` (stereo not shown) [Compound 59], the activation at 50 µM came to 127%, the EC50 was determined as 3300 nM and the “EC100%” value turned out to be 20.58 µM.

With `Cc1ccc2c(c1)C(OCC(=O)Nc1nccs1)N(Cc1ccccc1)C2=O` (stereo not shown) [Compound 60, 2-(2-Benzyl-6-methyl-3-oxo-2,3-dihydro-1H-isoindol-1-yloxy)-N-thiazol-2-yl-acetamide], the activation at 50 µM came out at 102% and the EC50 amounted to 7600 nM.

As to `Cc1ccc2c(c1)C(OCC(=O)Nc1ccccn1)N(Cc1ccccc1)C2=O` (stereo not shown) [Compound 61, 2-(2-Benzyl-6-methyl-3-oxo-2,3-dihydro-1H-isoindol-1-yloxy)-N-pyridin-2-yl-acetamide], the activation at 50 µM turned out to be 8.4% and the EC50 was 26000 nM.
